The source of these data is US8163929B2, “Dihydropyridone amides as P2X7 modulators” (Roche Palo Alto LLC, priority 2008, dated 2012).

This assay deals with T1, P2X7 (UniProt Q99572).
T1 sequence (Q99572 1-595): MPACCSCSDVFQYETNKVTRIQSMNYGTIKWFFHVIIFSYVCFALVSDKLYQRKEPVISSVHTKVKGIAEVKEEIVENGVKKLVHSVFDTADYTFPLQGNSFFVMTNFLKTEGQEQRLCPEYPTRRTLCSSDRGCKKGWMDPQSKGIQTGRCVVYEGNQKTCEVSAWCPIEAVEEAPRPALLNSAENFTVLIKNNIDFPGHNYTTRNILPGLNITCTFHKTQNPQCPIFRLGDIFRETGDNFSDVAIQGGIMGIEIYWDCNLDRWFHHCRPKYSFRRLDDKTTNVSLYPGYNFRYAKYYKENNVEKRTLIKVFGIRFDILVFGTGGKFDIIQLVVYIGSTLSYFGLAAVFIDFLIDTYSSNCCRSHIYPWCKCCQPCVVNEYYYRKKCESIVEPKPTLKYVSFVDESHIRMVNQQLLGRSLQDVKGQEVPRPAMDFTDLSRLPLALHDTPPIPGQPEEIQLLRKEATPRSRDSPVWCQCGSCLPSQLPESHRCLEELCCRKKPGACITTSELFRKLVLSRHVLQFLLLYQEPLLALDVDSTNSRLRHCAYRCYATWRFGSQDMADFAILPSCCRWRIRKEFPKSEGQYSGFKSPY
In words: P2X7 activity of Table 1. The format is cell-based. As to conditions: pIC50 values for P2X7. A digest of the protocol:
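FLIPR calcium flux with fluo-3 in 1321N1 cells expressing human P2X7 and HEK293 cells expressing rat P2X7, in HBSS with 2 mM CaCl2 and 2.5 mM probenecid. Antagonist pre-incubated 20 min at room temperature, then BzATP added (100 μM human, 5 μM rat). Peak response over 5 min normalised to 5 μM ionomycin.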
As a reminder, the pIC50 is the negative decadic logarithm of the IC50, by convention in mol/L. Low readings indicate a large IC50, high ones a small IC50. Molecule `Cc1ccnc(-c2ccc(C)c(NC(=O)C3=CNC(=O)C[C@H]3c3ccc(F)cc3)c2)n1` [Compound 80, (S)-4-(4-Fluoro-phenyl)-6-oxo-1,4,5,6-tetrahydro-pyridine-3-carboxylic acid [2-methyl-5-(4-methyl-pyrimidin-2-yl)-phenyl]-amide] had a pIC50 of 7.315.
Regarding `Cc1ccc(-c2ccnn(C)c2=O)cc1NC(=O)C1=CN(C)C(=O)C[C@H]1c1ccc(F)cc1` [Compound 81, (S)-4-(4-Fluoro-phenyl)-1-methyl-6-oxo-1,4,5,6-tetrahydro-pyridine-3-carboxylic acid [2-methyl-5-(2-methyl-3-oxo-2,3-dihydro-pyridazin-4-yl)-phenyl]-amide], the pIC50 is listed as 7.94.
The value for `Cc1ccc(-c2cncc(=O)[nH]2)cc1NC(=O)C1=CNC(=O)C[C@H]1c1ccc(F)cc1` [Compound 82, (S)-4-(4-Fluoro-phenyl)-6-oxo-1,4,5,6-tetrahydro-pyridine-3-carboxylic acid [2-methyl-5-(6-oxo-1,6-dihydro-pyrazin-2-yl)-phenyl]-amide] was 5.395; that for `Cc1ccc(-c2cc(C)n(CC(=O)O)n2)cc1NC(=O)C1=CNC(=O)C[C@H]1c1ccc(F)cc1` [Compound 83, [3-(3-{[(S)-4-(4-Fluoro-phenyl)-6-oxo-1,4,5,6-tetrahydro-pyridine-3-carbonyl]-amino}-4-methyl-phenyl)-5-methyl-pyrazol-1-yl]-acetic acid] was 6.335; that for `Cc1ccc(-c2ccn(CCO)n2)cc1NC(=O)C1=CNC(=O)C[C@H]1c1ccc(F)cc1` [Compound 84, (S)-4-(4-Fluoro-phenyl)-6-oxo-1,4,5,6-tetrahydro-pyridine-3-carboxylic acid {5-[1-(2-hydroxy-ethyl)-1H-pyrazol-3-yl]-2-methyl-phenyl}-amide] was 7.53.
The value for `Cc1ccc(-c2cc(C)n(CCO)n2)cc1NC(=O)C1=CNC(=O)CC1c1ccc(F)c(F)c1` (stereo not shown) [Compound 85, 4-(3,4-Difluoro-phenyl)-6-oxo-1,4,5,6-tetrahydro-pyridine-3-carboxylic acid {5-[1-(2-hydroxy-ethyl)-5-methyl-1H-pyrazol-3-yl]-2-methyl-phenyl}-amide] was 7.375; that for `Cc1ccc(-c2ccnn(C)c2=O)cc1NC(=O)C1=CN(C)C(=O)C[C@H]1c1cccc(F)c1` [Compound 86, (S)-4-(3-Fluoro-phenyl)-1-methyl-6-oxo-1,4,5,6-tetrahydro-pyridine-3-carboxylic acid [2-methyl-5-(2-methyl-3-oxo-2,3-dihydro-pyridazin-4-yl)-phenyl]-amide] was 7.62; that for `Cc1ccc(-c2ccn[nH]c2=O)cc1NC(=O)C1=CN(C)C(=O)C[C@H]1c1cccc(F)c1` [Compound 87, (S)-4-(3-Fluoro-phenyl)-1-methyl-6-oxo-1,4,5,6-tetrahydro-pyridine-3-carboxylic acid [2-methyl-5-(3-oxo-2,3-dihydro-pyridazin-4-yl)-phenyl]-amide] was 7.884.
`Cc1ccc(-n2ncccc2=O)cc1NC(=O)C1=CNC(=O)C[C@H]1c1cccc(F)c1` [Compound 89, (S)-4-(3-Fluoro-phenyl)-6-oxo-1,4,5,6-tetrahydro-pyridine-3-carboxylic acid [2-methyl-5-(6-oxo-6H-pyridazin-1-yl)-phenyl]-amide]: the pIC50 was 7.53.
Under `COC[C@H](O)Cn1nc(-c2ccc(C)c(NC(=O)C3=CN(C)C(=O)C[C@H]3c3cccc(F)c3)c2)cc1C` [Compound 90, (S)-4-(3-Fluoro-phenyl)-1-methyl-6-oxo-1,4,5,6-tetrahydro-pyridine-3-carboxylic acid {5-[1-((R)-2-hydroxy-3-methoxy-propyl)-5-methyl-1H-pyrazol-3-yl]-2-methyl-phenyl}-amide] stands 7.2; under `COC[C@@H](O)Cn1nc(-c2ccc(C)c(NC(=O)C3=CNC(=O)C[C@H]3c3ccc(F)cc3)c2)cc1C` [Compound 91, (S)-4-(4-Fluoro-phenyl)-6-oxo-1,4,5,6-tetrahydro-pyridine-3-carboxylic acid {5-[1-((S)-2-hydroxy-3-methoxy-propyl)-5-methyl-1H-pyrazol-3-yl]-2-methyl-phenyl}-amide], 7.15; under `COC[C@@H](O)Cn1nc(-c2ccc(C)c(NC(=O)C3=CN(C)C(=O)C[C@H]3c3ccc(F)cc3)c2)cc1C` [Compound 92, (S)-4-(4-Fluoro-phenyl)-1-methyl-6-oxo-1,4,5,6-tetrahydro-pyridine-3-carboxylic acid {5-[1-((S)-2-hydroxy-3-methoxy-propyl)-5-methyl-1H-pyrazol-3-yl]-2-methyl-phenyl}-amide], 6.615.
In the case of `Cc1ccc(-c2ccnn(CCO)c2=O)cc1NC(=O)C1=CN(C)C(=O)C[C@H]1c1cccc(F)c1` [Compound 93, (S)-4-(3-Fluoro-phenyl)-1-methyl-6-oxo-1,4,5,6-tetrahydro-pyridine-3-carboxylic acid {5-[2-(2-hydroxy-ethyl)-3-oxo-2,3-dihydro-pyridazin-4-yl]-2-methyl-phenyl}-amide], the pIC50 amounted to 7.5.
Take `Cc1ccc(-c2ccnn(CCO)c2=O)cc1NC(=O)C1=CN(C)C(=O)C[C@H]1c1ccc(F)cc1` [Compound 94, (S)-4-(4-Fluoro-phenyl)-1-methyl-6-oxo-1,4,5,6-tetrahydro-pyridine-3-carboxylic acid {5-[2-(2-hydroxy-ethyl)-3-oxo-2,3-dihydro-pyridazin-4-yl]-2-methyl-phenyl}-amide]: the pIC50 was found to be 7.8.
Under `Cc1ccc(-c2cc(C)n(CCO)n2)cc1NC(=O)C1=CNC(=O)CC1c1cc(F)cc(F)c1` (stereo not shown) [Compound 95, 4-(3,5-Difluoro-phenyl)-6-oxo-1,4,5,6-tetrahydro-pyridine-3-carboxylic acid {5-[1-(2-hydroxy-ethyl)-5-methyl-1H-pyrazol-3-yl]-2-methyl-phenyl}-amide] stands 7.85; under `Cc1ccc(-c2ccc(C)c(NC(=O)C3=CNC(=O)C[C@H]3c3cccc(F)c3)c2)nn1` [Compound 96, (S)-4-(3-Fluoro-phenyl)-6-oxo-1,4,5,6-tetrahydro-pyridine-3-carboxylic acid [2-methyl-5-(6-methyl-pyridazin-3-yl)-phenyl]-amide], 7.48.
`Cc1ccc(-c2ncccn2)cc1NC(=O)C1=CNC(=O)C[C@H]1c1cccc(F)c1` [Compound 97, (S)-4-(3-Fluoro-phenyl)-6-oxo-1,4,5,6-tetrahydro-pyridine-3-carboxylic acid (2-methyl-5-pyrimidin-2-yl-phenyl)-amide]: the pIC50 turned out to be 7.09.
On to `Cc1ccc(-c2ccc(=O)n(C)n2)cc1NC(=O)C1=CNC(=O)C[C@H]1c1ccc(F)cc1` [Compound 98, (S)-4-(4-Fluoro-phenyl)-6-oxo-1,4,5,6-tetrahydro-pyridine-3-carboxylic acid [2-methyl-5-(1-methyl-6-oxo-1,6-dihydro-pyridazin-3-yl)-phenyl]-amide], for which the pIC50 is 6.52.
`Cc1ccc(-c2ccc(=O)[nH]n2)cc1NC(=O)C1=CNC(=O)C[C@H]1c1ccc(F)cc1` [Compound 99, (S)-4-(4-Fluoro-phenyl)-6-oxo-1,4,5,6-tetrahydro-pyridine-3-carboxylic acid [2-methyl-5-(6-oxo-1,6-dihydro-pyridazin-3-yl)-phenyl]-amide] came in with a pIC50 of 7.515.
